Legend:
[1] = molecular target: T1, CRAF (Homo sapiens, UniProt P04049); test: CRAF kinase activity assay (ADP-Glo); format: biochemical; details: Table 3; 10 μM ATP, kinase-dead MEK1 substrate
T1 construct: fused on or other part: GST tag (N-terminal according to the vendor's product)
Method in brief: (§1)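 GST-tagged kinase (0.375 nM) with 75 nM kinase-dead MEK1 and 10 μM ATP in HEPES pH 7.5 buffer, 2 h at 30° C, nine concentrations 100–0.01 nM, 0.05% DMSO. ADP-Glo luminescence; % inhibition vs DMSO and substrate-only blanks, IC50 by four-parameter fit.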

[2] = system: pERK, HCT116 cells; test: Phospho-ERK inhibition, AlphaLISA p-ERK 1/2, HCT-116; format: cell-based, human; details: Table 3; for IC50: HCT116 cells (KRAS G13D), 1 h treatment; for HCT116 pERK (Ymin %): lowest % inhibition value of the pERK IC50 curve, above −20% = no paradoxical induction
Method in brief: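 Cells in RPMI-1640 with 5% FBS plated overnight, then treated 1 h with ten-point dilutions (10 μM to 0.33 nM, 0.5% DMSO). Lysate p-ERK1/2 (Thr202/Tyr204) read by AlphaLISA SureFire Ultra; % inhibition normalised to DMSO and 1 μM trametinib background, IC50 by four-parameter fit.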

[3] = molecular target: T2, BRAF (Homo sapiens, UniProt P15056); test: BRAF kinase activity assay (ADP-Glo); format: biochemical; details: Table 3; 10 μM ATP, kinase-dead MEK1 substrate
T2 construct: GST; purchased Millipore Sigma B4062-10UG
Method in brief: as §1

T2 sequence (P15056 whole entry): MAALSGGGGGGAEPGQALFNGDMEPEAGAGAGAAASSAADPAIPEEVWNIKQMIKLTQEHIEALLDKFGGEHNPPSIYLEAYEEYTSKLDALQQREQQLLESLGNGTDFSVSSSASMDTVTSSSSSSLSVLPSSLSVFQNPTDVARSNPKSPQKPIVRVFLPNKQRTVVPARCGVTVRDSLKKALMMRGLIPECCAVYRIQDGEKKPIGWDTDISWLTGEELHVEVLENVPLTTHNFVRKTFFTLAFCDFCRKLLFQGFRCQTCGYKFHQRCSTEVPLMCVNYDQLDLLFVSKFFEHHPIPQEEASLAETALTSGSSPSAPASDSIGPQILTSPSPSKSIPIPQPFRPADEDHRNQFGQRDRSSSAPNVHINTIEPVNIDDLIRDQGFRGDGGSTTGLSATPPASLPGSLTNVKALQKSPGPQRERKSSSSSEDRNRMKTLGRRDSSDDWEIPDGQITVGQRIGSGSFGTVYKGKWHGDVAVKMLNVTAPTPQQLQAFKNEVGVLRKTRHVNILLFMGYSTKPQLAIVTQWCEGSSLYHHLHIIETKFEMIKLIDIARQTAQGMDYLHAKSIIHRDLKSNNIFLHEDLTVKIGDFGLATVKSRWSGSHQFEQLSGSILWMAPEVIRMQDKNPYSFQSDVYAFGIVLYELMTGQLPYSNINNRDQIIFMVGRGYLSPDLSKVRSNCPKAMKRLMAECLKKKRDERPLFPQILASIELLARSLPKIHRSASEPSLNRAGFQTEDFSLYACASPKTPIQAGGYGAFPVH
T1 sequence (P04049 whole entry Y340E/Y341E, form open, the tested form may be a part): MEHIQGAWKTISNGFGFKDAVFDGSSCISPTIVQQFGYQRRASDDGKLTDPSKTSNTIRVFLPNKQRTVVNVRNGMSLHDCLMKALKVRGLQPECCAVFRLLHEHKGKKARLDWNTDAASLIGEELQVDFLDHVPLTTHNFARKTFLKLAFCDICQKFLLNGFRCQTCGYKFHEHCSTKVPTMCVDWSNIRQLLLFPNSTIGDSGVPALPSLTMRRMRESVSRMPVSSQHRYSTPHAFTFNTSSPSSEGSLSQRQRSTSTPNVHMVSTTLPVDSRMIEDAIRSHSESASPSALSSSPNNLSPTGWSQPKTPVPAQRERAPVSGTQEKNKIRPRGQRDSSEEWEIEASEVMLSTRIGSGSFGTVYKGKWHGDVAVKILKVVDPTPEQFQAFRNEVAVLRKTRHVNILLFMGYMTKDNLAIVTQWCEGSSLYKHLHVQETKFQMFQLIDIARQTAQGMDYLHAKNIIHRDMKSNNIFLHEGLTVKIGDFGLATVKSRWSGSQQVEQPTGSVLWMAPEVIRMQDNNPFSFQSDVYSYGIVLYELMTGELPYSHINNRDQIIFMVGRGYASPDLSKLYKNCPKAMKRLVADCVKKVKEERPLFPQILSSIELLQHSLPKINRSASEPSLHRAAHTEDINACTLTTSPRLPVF

Row | SMILES | IC50 [1] [nM] | IC50 [2] [nM] | IC50 [3] [nM] | IC50 ([2]; Homo sapiens, HCT-116) [nM] | HCT116 pERK (Ymin %) [2] [%]
1 | O=C(c1cn(-c2nc3c(Nc4c(F)ccc(NS(=O)(=O)c5cccc(Cl)c5Cl)c4F)ncnc3s2)c2ccccc12)N1C2CCC1COC2 [Example 51] | < 10 | < 500 | < 1 | – | −1
2 | O=C(c1cn(-c2nc3c(Nc4c(F)ccc(NS(=O)(=O)c5cccc(Cl)c5Cl)c4F)ncnc3s2)c2ccccc12)N1CCC(CO)C1 (stereo not shown) [Example 52] | < 10 | 500 to 1000 | < 1 | – | −9
3 | O=C(c1cn(-c2nc3c(Nc4c(F)ccc(NS(=O)(=O)c5cccc(Cl)c5Cl)c4F)ncnc3s2)c2ccccc12)N1CCC(O)C1 (stereo not shown) [Example 53] | < 10 | 500 to 1000 | < 1 | – | −9
4 | O=C(c1cn(-c2nc3c(Nc4c(F)ccc(NS(=O)(=O)c5cccc(Cl)c5Cl)c4F)ncnc3s2)c2ccccc12)N1CCCC(O)C1 (stereo not shown) [Example 55] | < 10 | 500 to 1000 | < 1 | – | −3
5 | CN1CC2CCC(C1)N2C(=O)c1cn(-c2nc3c(Nc4c(F)ccc(NS(=O)(=O)c5cccc(Cl)c5Cl)c4F)ncnc3s2)c2ccccc12 [Example 56] | < 10 | < 500 | < 1 | – | 0
6 | O=C(c1cn(-c2nc3c(Nc4c(F)ccc(NS(=O)(=O)c5cccc(Cl)c5Cl)c4F)ncnc3s2)c2ccccc12)N1CC(C(F)F)C1 [Example 57] | 10 to 50 | < 500 | 1 to 10 | – | 4
7 | O=C(c1cn(-c2nc3c(Nc4c(F)ccc(NS(=O)(=O)c5cccc(Cl)c5Cl)c4F)ncnc3s2)c2ccccc12)N1CC2(CCOCC2)C1 [Example 58] | < 10 | < 500 | 1 to 10 | – | −12
8 | N#CCC1CN(C(=O)c2cn(-c3nc4c(Nc5c(F)ccc(NS(=O)(=O)c6cccc(Cl)c6Cl)c5F)ncnc4s3)c3ccccc23)C1 [Example 60] | < 10 | < 500 | < 1 | – | −2
9 | O=S(=O)(Nc1ccc(F)c(Nc2ncnc3sc(-n4cnc5c(F)cc(F)cc54)nc23)c1F)c1cccc(Cl)c1Cl [Example 71] | < 10 | – | 1 to 10 | < 500 | –
10 | CC(C)(O)[C@@H]1CCCN1C(=O)c1cn(-c2nc3c(Nc4c(F)ccc(NS(=O)(=O)c5cccc(Cl)c5Cl)c4F)ncnc3s2)c2ccccc12 [Example 77] | 10 to 50 | 500 to 1000 | 1 to 10 | – | −5
11 | C[C@]1(CO)CCCN1C(=O)c1cn(-c2nc3c(Nc4c(F)ccc(NS(=O)(=O)c5cccc(Cl)c5Cl)c4F)ncnc3s2)c2ccccc12 [Example 78] | 10 to 50 | 500 to 1000 | 1 to 10 | – | −14
12 | COCCOc1ccc2c(ncn2-c2nc3c(Nc4c(F)ccc(NS(=O)(=O)c5cccc(Cl)c5Cl)c4F)ncnc3s2)c1F [Example 79] | < 10 | – | 1 to 10 | 500 to 1000 | –
13 | O=S(=O)(Nc1ccc(F)c(Nc2ncnc3sc(-n4cnc5c(F)c(OCCO)ccc54)nc23)c1F)c1cccc(Cl)c1Cl [Example 80] | < 10 | – | 1 to 10 | 1000 to 10000 | –

Second part, led by results:

Row | IC50 [1] [nM] | IC50 [2] [nM] | IC50 [3] [nM] | IC50 ([2]; Homo sapiens, HCT-116) [nM] | SMILES | HCT116 pERK (Ymin %) [2] [%]
14 | < 10 | < 500 | 1 to 10 | – | N#CC1CN(C(=O)c2cn(-c3nc4c(Nc5c(F)ccc(NS(=O)(=O)c6cccc(Cl)c6Cl)c5F)ncnc4s3)c3ccccc23)C1 [Example 54] | −6
15 | < 10 | 500 to 1000 | < 1 | – | O=C(c1cn(-c2nc3c(Nc4c(F)ccc(NS(=O)(=O)c5cccc(Cl)c5Cl)c4F)ncnc3s2)c2ccccc12)N1CC(O)C1 [Example 59] | 4
16 | < 10 | < 500 | 1 to 10 | – | NS(=O)(=O)c1cn(-c2nc3c(Nc4c(F)ccc(NS(=O)(=O)c5cccc(Cl)c5Cl)c4F)ncnc3s2)c2ccccc12 [Example 61] | −13
17 | < 10 | < 500 | 1 to 10 | – | COCCNS(=O)(=O)c1cn(-c2nc3c(Nc4c(F)ccc(NS(=O)(=O)c5cccc(Cl)c5Cl)c4F)ncnc3s2)c2ccccc12 [Example 62] | 2
18 | 10 to 50 | < 500 | 1 to 10 | – | CCS(=O)(=O)c1cn(-c2nc3c(Nc4c(F)ccc(NS(=O)(=O)c5cccc(Cl)c5Cl)c4F)ncnc3s2)c2ccccc12 [Example 63] | −5
19 | > 50 | < 500 | 1 to 10 | – | O=S(=O)(Nc1ccc(F)c(Nc2ncnc3sc(-n4cc(S(=O)(=O)C5CCCC5)c5ccccc54)nc23)c1F)c1cccc(Cl)c1Cl [Example 64] | −4
20 | 10 to 50 | 500 to 1000 | 1 to 10 | – | O=S(=O)(CC1CCOCC1)c1cn(-c2nc3c(Nc4c(F)ccc(NS(=O)(=O)c5cccc(Cl)c5Cl)c4F)ncnc3s2)c2ccccc12 [Example 65] | −3
21 | 10 to 50 | < 500 | 1 to 10 | – | CN(C1CCOC1)S(=O)(=O)c1cn(-c2nc3c(Nc4c(F)ccc(NS(=O)(=O)c5cccc(Cl)c5Cl)c4F)ncnc3s2)c2ccccc12 (stereo not shown) [Example 66] | −13
22 | > 50 | < 500 | 1 to 10 | – | O=S(=O)(Nc1ccc(F)c(Nc2ncnc3sc(-n4cc(S(=O)(=O)N5C6CCC5COC6)c5ccccc54)nc23)c1F)c1cccc(Cl)c1Cl [Example 67] | 0
23 | 10 to 50 | < 500 | 1 to 10 | – | CN1CC2CCC(C1)N2S(=O)(=O)c1cn(-c2nc3c(Nc4c(F)ccc(NS(=O)(=O)c5cccc(Cl)c5Cl)c4F)ncnc3s2)c2ccccc12 [Example 68] | −6
24 | 10 to 50 | 500 to 1000 | > 10 | – | CC1COCCN1S(=O)(=O)c1cn(-c2nc3c(Nc4c(F)ccc(NS(=O)(=O)c5cccc(Cl)c5Cl)c4F)ncnc3s2)c2ccccc12 (stereo not shown) [Example 69] | −7
25 | 10 to 50 | – | > 10 | 500 to 1000 | CCN(CCOC)S(=O)(=O)c1cn(-c2nc3c(Nc4c(F)ccc(NS(=O)(=O)c5cccc(Cl)c5Cl)c4F)ncnc3s2)c2ccccc12 [Example 70] | –
26 | < 10 | – | 1 to 10 | 500 to 1000 | CS(=O)(=O)c1cn(-c2nc3c(Nc4c(F)ccc(NS(=O)(=O)c5cccc(Cl)c5Cl)c4F)ncnc3s2)c2ccccc12 [Example 72] | –
27 | > 50 | < 500 | 1 to 10 | – | CC(C)S(=O)(=O)c1cn(-c2nc3c(Nc4c(F)ccc(NS(=O)(=O)c5cccc(Cl)c5Cl)c4F)ncnc3s2)c2ccccc12 [Example 73] | −12
28 | < 10 | 1000 to 10000 | 1 to 10 | – | O=S(=O)(Nc1ccc(F)c(Nc2ncnc3sc(-n4cc(S(=O)(=O)N5CC(CO)C5)c5ccccc54)nc23)c1F)c1cccc(Cl)c1Cl [Example 74] | −9
29 | 10 to 50 | 1000 to 10000 | > 10 | – | CN(CC(F)F)S(=O)(=O)c1cn(-c2nc3c(Nc4c(F)ccc(NS(=O)(=O)c5cccc(Cl)c5Cl)c4F)ncnc3s2)c2ccccc12 [Example 75] | −5
30 | 10 to 50 | 1000 to 10000 | > 10 | – | O=S(=O)(Nc1ccc(F)c(Nc2ncnc3sc(-n4cc(S(=O)(=O)N5CC(C(F)F)C5)c5ccccc54)nc23)c1F)c1cccc(Cl)c1Cl [Example 76] | −10
